Measured values: patent US4666886A, “Novel peptide derivatives” (Ciba-Geigy Corporation, priority 1983, dated 1987)
Square brackets hold non-standard residues; d marks the D form. Peptide text beside a SMILES is read from it. * marks the point of attachment. X2 = CCCCCCCCCCCC(=O)OC[C@H](C*)OC(=O)CCCCCCCCCCC; Palmitoyl = CCCCCCCCCCCCCCCC(=O)*

System: Alveolar rat macrophages
Assay: Activation of alveolar rat macrophages: specific cytotoxicity against 125I-marked tumour cells
Type: cell-based
Procedure: Alveolar rat macrophages are obtained by lung lavage, plated out and incubated in vitro from 24 hours either with liposomes that are charged with the active ingredient, or with the active ingredient in physiological salt solution (phosphate buffered saline, PBS), ^125 I-marked tumour cells are added and incubation is continued for a further 72 hours. Subsequently the dead tumour cells are washed away and the number of tumour cells still living is determined on the basis of their radioactivity. The macrophage activation is assessed on the basis of the cytotoxicity, that is to say according to the proportion of tumour cells dead at the end of the test. The specific cytotoxicity [%] is calculated as follows: [formula] Further details of the above-mentioned test method are described in I. J. Fidler et al., J. Biol. Response Modifiers 1, 43-55 (1982).

In the case of `CCCCCCCCCCCCCCCC(=O)N[C@@H](CSC[C@@H](COC(=O)CCCCCCCCCCC)OC(=O)CCCCCCCCCCC)C(=O)N[C@H](C)C(=O)N[C@@H](C)C(=O)N[C@H](CCC(=O)O)C(N)=O` [R, palmitoyl-Cys(2[R], 3-dilauroyloxy-propyl)-D-Ala-Ala-D-Glu-NH2] (Palmitoyl-C(X2)[dA]A[dE]-NH2), the “Specific cytotoxicity [%]” value (active ingredient in 100 μg of liposomes per 0.2 ml, 0.02 μg/culture) is reported as 20%, the “Specific cytotoxicity [%]” value (active ingredient in 100 μg of liposomes per 0.2 ml, 0.2 μg/culture) is reported as 18% and the “Specific cytotoxicity [%]” value (active ingredient in 100 μg of liposomes per 0.2 ml, 2 μg/culture) is reported as 86%. The “Specific cytotoxicity [%]” value (active ingredient in 0.2 ml of PBS, 0.02 μg/culture) was 0%, the “Specific cytotoxicity [%]” value (active ingredient in 0.2 ml of PBS, 0.2 μg/culture) was 84% and the “Specific cytotoxicity [%]” value (active ingredient in 0.2 ml of PBS, 2 μg/culture) was 51%.
